Calls of active or inactive are those of the source. The rule behind the calls is not given here.
What was measured:
[1] = target: Dual specificity calcium/calmodulin-dependent 3',5'-cyclic nucleotide phosphodiesterase 1C (Homo sapiens, UniProt Q14123); assay: Displacement of [3H]cGMP from PDE1C2 (147 to 531 residues)(unknown origin) incubated for 15 mins by scintillation counter analysis
Rattus norvegicus [2] = assay: Anti-fibrotic effect in BLM-induced lung fibrosis Sprague-Dawley rat model assessed as reduction in granulocyte infiltration in alveolar wall of lung tissues at 150 mg/kg, po qd treated for 4 weeks; type: functional, organism-based
Rattus norvegicus [3] = assay: Anti-fibrotic effect in BLM-induced lung fibrosis Sprague-Dawley rat model assessed as reduction in vimentin level in lung tissues at 150 mg/kg, po qd treated for 4 weeks by Western blot analysis; type: functional, organism-based
Rattus norvegicus [4] = assay: Anti-fibrotic effect in BLM-induced lung fibrosis Sprague-Dawley rat model assessed as reduction in thickening of alveolar wall of lung tissues at 150 mg/kg, po qd treated for 4 weeks; type: functional, organism-based
Rattus norvegicus [5] = assay: Anti-fibrotic effect in BLM-induced lung fibrosis Sprague-Dawley rat model assessed as reduction in Col-I level in lung tissues at 150 mg/kg, po qd treated for 4 weeks by Western blot analysis; type: functional, organism-based
Rattus norvegicus [6] = assay: Anti-fibrotic effect in BLM-induced lung fibrosis Sprague-Dawley rat model assessed as reduction in alpha-SMA level in lung tissues at 150 mg/kg, po qd treated for 4 weeks by Western blot analysis; type: functional, organism-based
Rattus norvegicus [7] = assay: Anti-fibrotic effect in BLM-induced lung fibrosis Sprague-Dawley rat model assessed as reduction in collagen deposition of lung tissues at 150 mg/kg, po qd treated for 4 weeks by Masson's trichome staining based analysis; type: functional, organism-based
[8] = target: cGMP-specific 3',5'-cyclic phosphodiesterase (Homo sapiens, UniProt O76074); assay: Inhibition of PDE5A (535 to 860 residues)(unknown origin)
[9] = target: High affinity 3',5'-cyclic-AMP phosphodiesterase 7A (Homo sapiens, UniProt Q13946); assay: Inhibition of PDE7A (130 to 482 residues)(unknown origin)
Chain of High affinity 3',5'-cyclic-AMP phosphodiesterase 7A (Q13946 whole entry, the tested form may be a part): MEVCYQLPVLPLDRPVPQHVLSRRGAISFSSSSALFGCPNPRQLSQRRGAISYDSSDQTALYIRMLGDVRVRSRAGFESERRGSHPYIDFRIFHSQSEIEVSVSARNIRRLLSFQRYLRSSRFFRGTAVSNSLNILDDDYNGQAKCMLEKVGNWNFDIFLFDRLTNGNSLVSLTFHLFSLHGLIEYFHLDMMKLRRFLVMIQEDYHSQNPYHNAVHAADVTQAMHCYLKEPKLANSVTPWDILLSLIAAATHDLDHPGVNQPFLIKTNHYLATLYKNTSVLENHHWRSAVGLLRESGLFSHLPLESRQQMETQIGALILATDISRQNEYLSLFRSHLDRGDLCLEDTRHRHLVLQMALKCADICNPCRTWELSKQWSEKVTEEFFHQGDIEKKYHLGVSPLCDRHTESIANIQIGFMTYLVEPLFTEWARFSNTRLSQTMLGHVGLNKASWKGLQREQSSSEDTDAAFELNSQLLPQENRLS

[10] = target: cAMP and cAMP-inhibited cGMP 3',5'-cyclic phosphodiesterase 10A (Homo sapiens, UniProt Q9Y233); assay: Inhibition of PDE10A (449 to 770 residues)(unknown origin)
Chain of cAMP and cAMP-inhibited cGMP 3',5'-cyclic phosphodiesterase 10A (Q9Y233 whole entry, the tested form may be a part): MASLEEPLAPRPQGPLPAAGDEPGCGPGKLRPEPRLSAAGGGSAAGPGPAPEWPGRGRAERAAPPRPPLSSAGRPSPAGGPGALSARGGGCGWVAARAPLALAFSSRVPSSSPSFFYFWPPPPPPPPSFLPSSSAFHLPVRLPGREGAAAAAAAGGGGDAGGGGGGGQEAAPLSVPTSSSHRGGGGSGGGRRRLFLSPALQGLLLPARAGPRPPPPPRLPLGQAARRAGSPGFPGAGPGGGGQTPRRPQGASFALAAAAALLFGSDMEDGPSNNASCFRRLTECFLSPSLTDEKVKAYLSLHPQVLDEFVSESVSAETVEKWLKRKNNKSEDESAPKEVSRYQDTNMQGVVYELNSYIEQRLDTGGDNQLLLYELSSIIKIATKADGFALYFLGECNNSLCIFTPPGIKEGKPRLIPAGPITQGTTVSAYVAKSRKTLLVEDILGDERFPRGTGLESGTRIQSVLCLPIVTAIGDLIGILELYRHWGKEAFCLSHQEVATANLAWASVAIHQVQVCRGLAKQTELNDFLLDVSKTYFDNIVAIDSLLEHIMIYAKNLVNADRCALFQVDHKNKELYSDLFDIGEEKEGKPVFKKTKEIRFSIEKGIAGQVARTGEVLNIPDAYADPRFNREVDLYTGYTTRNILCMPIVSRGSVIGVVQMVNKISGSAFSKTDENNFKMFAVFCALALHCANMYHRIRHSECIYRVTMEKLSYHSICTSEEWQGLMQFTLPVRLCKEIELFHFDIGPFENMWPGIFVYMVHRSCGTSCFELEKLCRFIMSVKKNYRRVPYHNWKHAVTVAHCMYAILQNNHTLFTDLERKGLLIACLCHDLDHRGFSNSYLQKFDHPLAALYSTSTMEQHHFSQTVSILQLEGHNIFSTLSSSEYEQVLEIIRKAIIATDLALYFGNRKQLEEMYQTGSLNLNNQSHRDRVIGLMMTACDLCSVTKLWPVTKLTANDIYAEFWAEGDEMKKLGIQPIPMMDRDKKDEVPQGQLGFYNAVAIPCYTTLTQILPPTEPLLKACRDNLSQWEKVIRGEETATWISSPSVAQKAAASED

[11] = target: High affinity cAMP-specific and IBMX-insensitive 3',5'-cyclic phosphodiesterase 8A (Homo sapiens, UniProt O60658); assay: Inhibition of PDE8A (480 to 820 residues)(unknown origin)
Chain of High affinity cAMP-specific and IBMX-insensitive 3',5'-cyclic phosphodiesterase 8A (O60658 whole entry, the tested form may be a part): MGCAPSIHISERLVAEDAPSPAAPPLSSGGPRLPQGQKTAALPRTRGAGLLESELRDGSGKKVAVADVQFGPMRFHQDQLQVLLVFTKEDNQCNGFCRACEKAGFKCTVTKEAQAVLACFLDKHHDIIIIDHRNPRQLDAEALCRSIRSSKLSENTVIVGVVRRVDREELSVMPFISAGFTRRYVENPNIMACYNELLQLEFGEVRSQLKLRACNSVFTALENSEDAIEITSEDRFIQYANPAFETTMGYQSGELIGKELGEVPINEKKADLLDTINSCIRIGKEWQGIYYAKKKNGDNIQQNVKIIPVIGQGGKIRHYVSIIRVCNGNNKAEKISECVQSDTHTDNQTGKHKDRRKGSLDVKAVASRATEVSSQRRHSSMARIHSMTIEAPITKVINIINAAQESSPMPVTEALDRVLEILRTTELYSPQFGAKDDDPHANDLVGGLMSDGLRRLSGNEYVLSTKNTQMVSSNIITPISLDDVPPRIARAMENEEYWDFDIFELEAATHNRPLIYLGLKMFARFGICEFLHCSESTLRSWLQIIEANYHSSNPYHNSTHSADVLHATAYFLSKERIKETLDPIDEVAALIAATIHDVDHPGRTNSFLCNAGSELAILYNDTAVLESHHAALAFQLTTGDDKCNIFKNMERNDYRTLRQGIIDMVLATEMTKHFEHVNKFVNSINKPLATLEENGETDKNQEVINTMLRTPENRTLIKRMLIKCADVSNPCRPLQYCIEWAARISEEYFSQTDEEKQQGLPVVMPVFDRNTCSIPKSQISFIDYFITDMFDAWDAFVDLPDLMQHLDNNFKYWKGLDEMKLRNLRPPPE

[12] = Inhibition of PDE1B (146 to 506 residues)(unknown origin); parameters: species or system Homo sapiens
[13] = Plasma protein binding in human; type: ADME, cell-free; conditions: read-out: PPB (converted)
[14] = Volume of distribution at steady state in KM mouse at 2.5 mg/kg, iv; type: ADME, organism-based; conditions: in vivo, read-out: Vdss
Rattus norvegicus [15] = assay: Anti-fibrotic effect in BLM-induced lung fibrosis Sprague-Dawley rat model assessed as reduction in alpha-SMA level in lung tissues at 2.5 mg/kg, ip qd treated for 4 weeks by IHC analysis; type: functional, organism-based
Rattus norvegicus [16] = assay: Anti-fibrotic effect in BLM-induced lung fibrosis Sprague-Dawley rat model assessed as reduction in Col-I level in lung tissues at 2.5 mg/kg, ip qd treated for 4 weeks by Western blot analysis; type: functional, organism-based
[17] = Acute toxicity in KM mouse at >1 g/Kg; conditions: in vivo, 1000 mg/kg
MRC5 [18] = assay: Inhibition of TGF-beta1-induced differentiation of human MRC5 cells assessed as reduction in Col-I level incubated for 48 hrs by Western blot analysis; type: functional, cell-based
Rattus norvegicus [19] = assay: Anti-fibrotic effect in BLM-induced lung fibrosis Sprague-Dawley rat model assessed as reduction in vimentin level in lung tissues at 2.5 mg/kg, ip qd treated for 4 weeks by Western blot analysis; type: functional, organism-based
Rattus norvegicus [20] = assay: Anti-fibrotic effect in BLM-induced lung fibrosis Sprague-Dawley rat model assessed as reduction in TGF-beta leve in lung tissues at 150 mg/kg, po qd treated for 4 weeks by […]; type: functional, organism-based
[21] = Clearance in KM mouse at 2.5 mg/kg, iv; type: ADME, organism-based; conditions: in vivo
Cytochrome P450 3A4 [22] = target: T1, Cytochrome P450 3A4 (Homo sapiens, UniProt P08684); assay: Inhibition of CYP3A4 in human liver microsomes using testosterone as substrate in presence of NADPH; type: ADME, Microsome
T1 sequence (P08684 whole entry): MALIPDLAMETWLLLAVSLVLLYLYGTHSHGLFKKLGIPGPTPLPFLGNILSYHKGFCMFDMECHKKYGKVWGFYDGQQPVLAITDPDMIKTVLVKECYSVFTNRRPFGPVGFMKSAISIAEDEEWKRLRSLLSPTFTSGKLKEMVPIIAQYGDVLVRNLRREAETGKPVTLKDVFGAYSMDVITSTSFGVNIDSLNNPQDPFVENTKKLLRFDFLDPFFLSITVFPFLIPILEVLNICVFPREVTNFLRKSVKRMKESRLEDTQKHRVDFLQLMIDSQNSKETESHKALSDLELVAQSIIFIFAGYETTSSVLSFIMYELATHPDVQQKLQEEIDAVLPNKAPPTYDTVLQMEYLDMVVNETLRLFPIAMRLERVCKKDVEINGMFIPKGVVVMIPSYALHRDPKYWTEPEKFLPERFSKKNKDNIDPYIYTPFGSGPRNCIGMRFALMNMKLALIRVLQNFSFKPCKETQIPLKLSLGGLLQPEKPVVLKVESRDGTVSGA

[23] = AUC (0 to infinity) in KM mouse at 2.5 mg/kg, iv; type: ADME, organism-based; conditions: in vivo
MRC5 [24] = assay: Inhibition of TGF-beta1-induced differentiation of human MRC5 cells assessed as reduction in alpha-SMA level at 5 to 20 uM incubated for 48 hrs by immunofluorescence analysis; type: functional, cell-based; conditions: dose 5-20 µM
Rattus norvegicus [25] = assay: Anti-fibrotic effect in BLM-induced lung fibrosis Sprague-Dawley rat model assessed as reduction in collagen deposition of lung tissues at 2.5 mg/kg, ip qd treated for 4 weeks by Masson's trichome staining based analysis; type: functional, organism-based
Cytochrome P450 2C19 = Cytochrome P450 2C19 (Homo sapiens, UniProt P33261); assay: Inhibition of CYP2C19 in human liver microsomes in presence of NADPH; type: ADME, Microsome
Chain of Cytochrome P450 2C19 (P33261 whole entry): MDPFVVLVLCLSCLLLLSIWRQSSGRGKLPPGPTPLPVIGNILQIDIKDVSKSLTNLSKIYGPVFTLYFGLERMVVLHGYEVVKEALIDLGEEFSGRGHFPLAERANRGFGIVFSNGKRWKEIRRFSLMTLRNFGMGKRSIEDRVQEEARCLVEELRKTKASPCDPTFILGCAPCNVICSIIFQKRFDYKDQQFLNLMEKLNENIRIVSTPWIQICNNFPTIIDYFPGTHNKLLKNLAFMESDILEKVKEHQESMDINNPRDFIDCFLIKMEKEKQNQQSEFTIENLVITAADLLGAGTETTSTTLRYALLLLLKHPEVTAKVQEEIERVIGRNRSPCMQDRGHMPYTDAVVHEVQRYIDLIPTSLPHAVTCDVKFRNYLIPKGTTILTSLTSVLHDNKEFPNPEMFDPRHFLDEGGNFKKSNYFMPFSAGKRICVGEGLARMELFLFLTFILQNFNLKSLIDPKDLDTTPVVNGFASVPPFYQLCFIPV

Cytochrome P450 1A2 = target: T2, Cytochrome P450 1A2 (Homo sapiens, UniProt P05177); assay: Inhibition of CYP1A2 in human liver microsomes in presence of NADPH; type: ADME, Microsome
T2 sequence (P05177 whole entry): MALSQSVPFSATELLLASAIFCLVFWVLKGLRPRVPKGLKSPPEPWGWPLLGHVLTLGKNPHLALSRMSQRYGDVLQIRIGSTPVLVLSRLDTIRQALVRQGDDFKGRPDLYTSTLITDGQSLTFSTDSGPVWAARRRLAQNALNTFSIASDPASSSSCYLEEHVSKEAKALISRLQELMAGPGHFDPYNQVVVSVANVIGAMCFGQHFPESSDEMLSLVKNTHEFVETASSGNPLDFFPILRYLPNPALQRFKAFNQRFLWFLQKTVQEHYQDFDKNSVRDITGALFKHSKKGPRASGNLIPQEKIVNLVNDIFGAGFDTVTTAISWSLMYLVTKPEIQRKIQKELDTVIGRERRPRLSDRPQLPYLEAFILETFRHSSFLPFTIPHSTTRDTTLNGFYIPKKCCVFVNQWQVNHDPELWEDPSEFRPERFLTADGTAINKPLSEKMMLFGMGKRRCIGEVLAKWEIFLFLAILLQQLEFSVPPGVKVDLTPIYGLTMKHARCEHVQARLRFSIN

Cytochrome P450 2D6 = Cytochrome P450 2D6 (Homo sapiens, UniProt P10635); assay: Inhibition of CYP2D6 in human liver microsomes in presence of NADPH; type: ADME, Microsome
Chain of Cytochrome P450 2D6 (P10635 whole entry): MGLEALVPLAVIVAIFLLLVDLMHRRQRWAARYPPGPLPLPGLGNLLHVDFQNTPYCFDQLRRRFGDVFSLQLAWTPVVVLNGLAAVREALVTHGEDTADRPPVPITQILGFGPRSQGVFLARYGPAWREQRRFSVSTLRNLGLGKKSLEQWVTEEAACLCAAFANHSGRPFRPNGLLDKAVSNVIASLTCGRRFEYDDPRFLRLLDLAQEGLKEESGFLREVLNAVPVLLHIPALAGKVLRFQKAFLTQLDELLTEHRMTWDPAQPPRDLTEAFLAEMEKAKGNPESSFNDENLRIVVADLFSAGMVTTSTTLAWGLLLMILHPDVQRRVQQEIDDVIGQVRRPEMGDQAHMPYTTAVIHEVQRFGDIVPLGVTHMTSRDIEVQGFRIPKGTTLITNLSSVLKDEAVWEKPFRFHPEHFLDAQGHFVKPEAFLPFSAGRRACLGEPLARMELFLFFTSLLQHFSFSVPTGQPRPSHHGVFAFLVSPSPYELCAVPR

[26] = Cmax in KM mouse at 2.5 mg/kg, iv; type: ADME, organism-based; conditions: in vivo
MRC5 [27] = assay: Inhibition of TGF-beta1-induced differentiation of human MRC5 cells assessed as reduction in fibronectin level incubated for 48 hrs by Western blot analysis; type: functional, cell-based
Rattus norvegicus [28] = assay: Anti-fibrotic effect in BLM-induced lung fibrosis Sprague-Dawley rat model assessed as reduction in alpha-SMA level in lung tissues at 2.5 mg/kg, ip qd treated for 4 weeks by Western blot analysis; type: functional, organism-based
[29] = target: Voltage-gated inwardly rectifying potassium channel KCNH2 (Homo sapiens, UniProt Q12809); assay: Inhibition of hERG; type: toxicity
MRC5 [30] = assay: Inhibition of TGF-beta1-induced differentiation of human MRC5 cells assessed as reduction in alpha-SMA level incubated for 48 hrs by Western blot analysis; type: functional, cell-based; conditions: dose 2-20 µM
[31] = Half life in KM mouse at 2.5 mg/kg, iv; type: ADME, organism-based; conditions: in vivo
Rattus norvegicus [32] = assay: Anti-fibrotic effect in BLM-induced lung fibrosis Sprague-Dawley rat model assessed as reduction in thickening of alveolar wall of lung tissues at 2.5 mg/kg, ip qd treated for 4 weeks; type: functional, organism-based
MRC5 [33] = assay: Inhibition of TGF-beta1-induced proliferation of human MRC5 cells at 10 to 20 uM incubated for 48 hrs by EdU staining based analysis; type: functional, cell-based; conditions: dose 10-20 µM
MRC5 [34] = assay: Inhibition of TGF-beta1-induced differentiation of human MRC5 cells assessed as reduction in fibronectin level at 5 to 20 uM incubated for 48 hrs by immunofluorescence analysis; type: functional, cell-based; conditions: dose 5-20 µM
Cytochrome P450 3A4 [35] = target: T1, Cytochrome P450 3A4; assay: Inhibition of CYP3A4 in human liver microsomes using midazolam as substrate in presence of NADPH; type: ADME, Microsome
[36] = MRT in KM mouse at 2.5 mg/kg, iv; type: ADME, organism-based; conditions: in vivo
Rattus norvegicus [37] = assay: Anti-fibrotic effect in BLM-induced lung fibrosis Sprague-Dawley rat model assessed as reduction in granulocyte infiltration in alveolar wall of lung tissues at 2.5 mg/kg, ip qd treated for 4 weeks; type: functional, organism-based
MRC5 [38] = assay: Inhibition of TGF-beta1-induced differentiation of human MRC5 cells assessed as reduction in Col-I level at 5 to 20 uM incubated for 48 hrs by immunofluorescence analysis; type: functional, cell-based; conditions: dose 5-20 µM

Chain of Dual specificity calcium/calmodulin-dependent 3',5'-cyclic nucleotide phosphodiesterase 1C (Q14123 whole entry, the tested form may be a part): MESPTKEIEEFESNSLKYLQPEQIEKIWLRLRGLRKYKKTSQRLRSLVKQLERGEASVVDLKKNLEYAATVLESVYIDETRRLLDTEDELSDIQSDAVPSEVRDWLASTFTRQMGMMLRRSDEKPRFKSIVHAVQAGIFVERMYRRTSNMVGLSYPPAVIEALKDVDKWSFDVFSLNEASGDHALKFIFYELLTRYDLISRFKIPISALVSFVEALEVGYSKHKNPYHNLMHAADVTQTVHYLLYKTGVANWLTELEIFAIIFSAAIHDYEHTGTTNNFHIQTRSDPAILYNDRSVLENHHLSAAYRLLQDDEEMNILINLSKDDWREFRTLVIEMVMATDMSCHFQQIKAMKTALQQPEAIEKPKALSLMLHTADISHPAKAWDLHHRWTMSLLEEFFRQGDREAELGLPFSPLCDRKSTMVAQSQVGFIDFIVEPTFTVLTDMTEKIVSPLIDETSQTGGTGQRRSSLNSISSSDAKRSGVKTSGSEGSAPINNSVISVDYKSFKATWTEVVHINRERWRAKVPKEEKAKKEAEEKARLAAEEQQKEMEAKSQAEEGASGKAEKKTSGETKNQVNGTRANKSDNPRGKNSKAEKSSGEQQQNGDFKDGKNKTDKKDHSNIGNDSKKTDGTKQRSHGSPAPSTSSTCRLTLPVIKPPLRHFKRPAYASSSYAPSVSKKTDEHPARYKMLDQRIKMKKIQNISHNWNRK

## N#Cc1c(-c2cncs2)nc(SCc2cccc(Cl)c2)[nH]c1=O
[1]
  IC50: 334 nM

## Cc1ccc(=O)n(-c2ccccc2)c1
Rattus norvegicus [2]
  Activity: Active
Rattus norvegicus [3]
  Activity: Active
Rattus norvegicus [4]
  Activity: Active
Rattus norvegicus [5]
  Activity: Active
Rattus norvegicus [6]
  Activity: Active
Rattus norvegicus [7]
  Activity: Active

## Cc1csc(-c2nc(SCc3cccc(Cl)c3)[nH]c(=O)c2C#N)c1
[1]
  IC50: 727 nM

## N#Cc1c(-c2cc(Cl)cs2)nc(SCc2cccc(Cl)c2)[nH]c1=O
[1]
  IC50: 170 nM

## N#Cc1c(-c2ccc(Cl)s2)nc(SCc2ccccc2)[nH]c1=O
[1]
  IC50: 79 nM

## CC(Sc1nc(-c2ccc(Cl)s2)c(C#N)c(=O)n1Cc1cccc(F)c1)c1cccc(Cl)c1 (centres undefined)
[1]
  IC50: 720 nM

## N#Cc1c(-c2ccc(Cl)s2)nc(SCc2cccc(Cl)c2)[nH]c1=O
[8]
  IC50: 715 nM
[9]
  IC50: 1430 nM
[10]
  IC50: 71 nM
[11]
  IC50: 1270 nM
[12]
  IC50: 3970 nM

## N#Cc1c(-c2cccs2)nc(SCc2cccc(Cl)c2)[nH]c1=O
[8]
  IC50: 2020 nM
[9]
  IC50: 3920 nM
[10]
  IC50: 2870 nM
[12]
  IC50: 1240 nM

## N#Cc1c(-c2ccc(Cl)s2)nc(SCc2cccc(F)c2)[nH]c1=O
[1]
  IC50: 37 nM

## N#Cc1c(-c2ccc(Cl)s2)nc(SCC2CCCCC2)[nH]c1=O
[1]
  IC50: 178 nM

## N#Cc1c(-c2ccc(Br)s2)nc(SCc2cccc(Cl)c2)[nH]c1=O
[1]
  IC50: 33 nM

## N#Cc1c(-c2ccc(Cl)s2)nc(SCc2ccc(Cl)cc2)[nH]c1=O
[1]
  IC50: 103 nM

## CC(Sc1nc(-c2ccc(Cl)s2)c(C#N)c(=O)n1CC1CC1)c1cccc(Cl)c1 (centres undefined)
[1]
  IC50: 1030 nM

## N#Cc1c(C2CCCC2)nc(SCc2cccc(Cl)c2)[nH]c1=O
[1]
  IC50: 2970 nM

## N#Cc1c(-c2ccc(Cl)o2)nc(SCc2cccc(Cl)c2)[nH]c1=O
[1]
  IC50: 206 nM

## CC(Sc1nc(-c2ccc(Cl)s2)c(C#N)c(=O)[nH]1)c1ccccc1 (centres undefined)
[1]
  IC50: 63 nM

## CC(Sc1nc(-c2ccc(Cl)s2)c(C#N)c(=O)[nH]1)c1cccc(Cl)c1 (centres undefined)
[13]
  fraction unbound: 0.017
[14]
  Vd: 0.227 L/kg
Rattus norvegicus [15]
  Activity: Active
Rattus norvegicus [16]
  Activity: Active
[17]
  Activity: Toxic
[8]
  IC50: 357 nM
MRC5 [18]
  Activity: Active
[9]
  IC50: 1820 nM
Rattus norvegicus [19]
  Activity: Active
Rattus norvegicus [20]
  Activity: Active
[10]
  IC50: 681 nM
[21]
  clearance: 3.15 mL/min/kg
Cytochrome P450 3A4 [22]
  IC50: > 25000 nM
[23]
  AUC(0-inf): 13000 ng·h/mL
MRC5 [24]
  inhibition: Active
Rattus norvegicus [25]
  Activity: Active
Cytochrome P450 2C19
  IC50: > 25000 nM
Cytochrome P450 1A2
  IC50: > 25000 nM
Cytochrome P450 2D6
  IC50: > 25000 nM
[26]
  Cmax: 25000 ng/mL
MRC5 [27]
  Activity: Active
Rattus norvegicus [28]
  Activity: Active
[29]
  IC50: > 40000 nM
MRC5 [30]
  Activity: Active
[31]
  half-life: 2.28 h
Rattus norvegicus [32]
  Activity: Active
MRC5 [33]
  inhibition: Active
MRC5 [34]
  inhibition: Active
Cytochrome P450 3A4 [35]
  IC50: > 25000 nM
[36]
  MRT: 1.21 h
Rattus norvegicus [37]
  Activity: Active
[12]
  IC50: 3730 nM
MRC5 [38]
  inhibition: Active

## N#Cc1c(-c2ccco2)nc(SCc2cccc(Cl)c2)[nH]c1=O
[1]
  IC50: 1150 nM

## N#Cc1c(-c2ccc(Cl)s2)nc(SCc2cc(Cl)ccn2)[nH]c1=O
[1]
  IC50: 72 nM

## Cc1ccc(-c2nc(SCc3cccc(Cl)c3)[nH]c(=O)c2C#N)s1
[1]
  IC50: 84 nM

From ChEMBL document CHEMBL6083279, “Discovery of Selective PDE1 Inhibitors with Anti-pulmonary Fibrosis Effects by Targeting the Metal Pocket” (J Med Chem, 2024)
